# According to patent US20240366498A1, “Reducing the Risk of Infection from Bacteria Present in Skin Pores During Surgery” (The Board of Trustees of the Leland Stanford Junior …, priority 2021, published 2024):
# Like-named read-outs stand apart in the source and are kept apart here.
# Tests used:
# Type in all cases: cell-based
# [1] = tested on: Cutibacterium acnes strain 2 (BWH-002 25541381); experiment: Growth of C. acnes strain 2 in RCM with antibacterial agent, optical density
# Method: (§1) Seven different strains of Cutibacterium acnes were grown in test tubes in Reinforced Clostridial Medium (RCM). Each strain was divided into different wells of mulita-well plates (96-well and 384-well plates were used). 80 μl was used and a 1:200 dilution from saturated cultures. Either an antibacterial agent or vehicle (as a control) was added to each well. Absorbance was measured and quantified as optical density (OD) as a proxy for cell biomass. The OD was recorded at regular intervals over several hours. […] The OD at 48 hours was estimated by calculating the average OD between 47 and 49 hours, and this value was used for further analyses. OD600 is the OD at 600 nm. The OD is listed in arbitrary units determined by the spectrophotometers. Such OD data was collected for different concentrations of each antibacterial agent. […] The horizontal axis has units of μM (micromoles per liter).
# [2] = tested on: Cutibacterium acnes strain 3 (BWH-003 25505801); experiment: Growth of C. acnes strain 3 in RCM with antibacterial agent, optical density
# Method: as §1
# [3] = tested on: Cutibacterium acnes strain 10 (HM-523 (HL053PA2)); experiment: Growth of C. acnes strain 10 in RCM with antibacterial agent, optical density
# Method: as §1
# [4] = tested on: Cutibacterium acnes strain 12 (HM-539 (HL086PA1)); experiment: Growth of C. acnes strain 12 in RCM with antibacterial agent, optical density
# Method: as §1
# [5] = tested on: Cutibacterium acnes strain 13 (HM-552 (HL110PA1)); experiment: Growth of C. acnes strain 13 in RCM with antibacterial agent, optical density
# Method: as §1
# [6] = tested on: Cutibacterium acnes strain 15 (KPL2008); experiment: Growth of C. acnes strain 15 in RCM with antibacterial agent, optical density
# Method: as §1
# [7] = tested on: Cutibacterium acnes strain 16 (KPL1847); experiment: Growth of C. acnes strain 16 in RCM with antibacterial agent, optical density
# Method: as §1
# Cutibacterium acnes = experiment: Effect of antibacterial agents on C. acnes, seven strains taken together; conditions: across the tested strains
# Method: Seven different strains of Cutibacterium acnes were grown in test tubes in Reinforced Clostridial Medium (RCM). Each strain was divided into different wells of mulita-well plates (96-well and 384-well plates were used). 80 μl was used and a 1:200 dilution from saturated cultures. Either an antibacterial agent or vehicle (as a control) was added to each well. Absorbance was measured and quantified as optical density (OD) as a proxy for cell biomass. The OD was recorded at regular intervals over several hours. […] The OD at 48 hours was estimated by calculating the average OD between 47 and 49 hours, and this value was used for further analyses. OD600 is the OD at 600 nm. The OD is listed in arbitrary units determined by the spectrophotometers.
# Such OD data was collected for different concentrations of each antibacterial agent. […] The horizontal axis has units of μM (micromoles per liter). Next, IC50 values were calculated by assessing when the OD value was about 0.5.
# [8] = strain 2, OD at 48 hours, RCM, read-out: IC50
# [9] = strain 3, OD at 48 hours, RCM, read-out: IC50
# [10] = strain 10, OD at 48 hours, RCM, read-out: IC50
# [11] = strain 12, OD at 48 hours, RCM, read-out: IC50
# [12] = strain 13, OD at 48 hours, RCM, read-out: IC50
# [13] = strain 15, OD at 48 hours, RCM, read-out: IC50
# [14] = strain 16, OD at 48 hours, RCM, read-out: IC50
Compound,"IC50 [1, 8] [µM]","IC50 [2, 9] [µM]","IC50 [3, 10] [µM]","IC50 [4, 11] [µM]","IC50 [5, 12] [µM]","IC50 [6, 13] [µM]","IC50 [7, 14] [µM]","IC50 values, in words (Cutibacterium acnes)",IC50 ([1]; 48 h) [µM],IC50 ([2]; 48 h) [µM],IC50 ([3]; 48 h) [µM],IC50 ([4]; 48 h) [µM],IC50 ([5]; 48 h) [µM],IC50 ([6]; 48 h) [µM],IC50 ([7]; 48 h) [µM]
CC1(C)S[C@@H]2[C@H](NC(=O)[C@H](N)c3ccc(O)cc3)C(=O)N2[C@H]1C(=O)O [Amoxicillin],0.078,0.0098,0.078,0.039,0.019,0.16,0.31,relatively low IC50 values,,,,,,,
CO/N=C(\C(=O)N[C@@H]1C(=O)N2C(C(=O)[O-])=C(C[N+]3(C)CCCC3)CS[C@H]12)c1csc(N)n1 [Cefepime],0.31,2.5,0.31,0.16,0.31,2.5,2.5,,,,,,,,
CN[C@H](CC(C)C)C(=O)N[C@H]1C(=O)N[C@@H](CC(N)=O)C(=O)N[C@H]2C(=O)N[C@H]3C(=O)N[C@H](C(=O)N[C@H](C(=O)O)c4cc(O)cc(O)c4-c4cc3ccc4O)[C@H](O)c3ccc(c(Cl)c3)Oc3cc2cc(c3O[C@@H]2O[C@H](CO)[C@@H](O)[C@H](O)[C@H]2O[C@H]2C[C@](C)(N)[C@H](O)[C@H](C)O2)Oc2ccc(cc2Cl)[C@H]1O [Vancomycin],,,,,,,,,0.16,0.15,0.16,0.31,0.16,0.31,0.31
O=C(OOC(=O)c1ccccc1)c1ccccc1 [Benzoyl Peroxide],2560,> 2560,1280,2560,640,640,640,,,,,,,,

# Second part, led by results:
"IC50 [1, 8] [µM]","IC50 [2, 9] [µM]","IC50 [3, 10] [µM]","IC50 [4, 11] [µM]","IC50 [5, 12] [µM]","IC50 [6, 13] [µM]","IC50 [7, 14] [µM]","IC50 values, in words (Cutibacterium acnes)",Compound,IC50 ([1]; 48 h) [µM],IC50 ([2]; 48 h) [µM],IC50 ([3]; 48 h) [µM],IC50 ([4]; 48 h) [µM],IC50 ([5]; 48 h) [µM],IC50 ([6]; 48 h) [µM],IC50 ([7]; 48 h) [µM]
> 5120,> 5120,> 5120,5120,5120,5120,> 5120,,Cc1ncc([N+](=O)[O-])n1CCO [Metronidazole],,,,,,,
640,80,320,160,320,640,160,,NC[C@H]1O[C@H](O[C@H]2[C@H](O)[C@@H](O[C@H]3O[C@H](CO)[C@@H](O)[C@H](N)[C@H]3O)[C@H](N)C[C@@H]2N)[C@H](O)[C@@H](O)[C@@H]1O [Kanamycin],,,,,,,
1280,2560,2560,1280,640,2560,2560,,OO [Hydrogen Peroxide],,,,,,,
0.0097,0.0098,0.0098,0.0098,0.0098,,,relatively low IC50 values,CO/N=C(\C(=O)N[C@@H]1C(=O)N2C(C(=O)O)=C(CSc3nc(=O)c(=O)[nH]n3C)CS[C@H]12)c1csc(N)n1 [Ceftriaxone],,,,,,,
0.039,0.16,0.078,0.0098,0.039,0.16,0.31,,C[C@@H](O)[C@H]1C(=O)N2C(C(=O)O)=C(S[C@@H]3CN[C@H](C(=O)Nc4cccc(C(=O)O)c4)C3)[C@H](C)[C@H]12 [Ertapenem],,,,,,,
